According to ChEMBL document CHEMBL1156829 (Proc Natl Acad Sci U S A, 2008):
Where “and” joins values, the source holds several entries; their conditions need not be identical. Equal entries are not always repeated.

What was measured:
Plasmodium falciparum [1] = test: NOVARTIS: Inhibition of Plasmodium falciparum 3D7 (drug-susceptible) proliferation in erythrocyte-based infection assay; type: functional, organism-based
Plasmodium falciparum [2] = test: NOVARTIS: Inhibition of Plasmodium falciparum W2 (drug-resistant) proliferation in erythrocyte-based infection assay; type: functional, organism-based; conditions: read-out: EC50
[3] = NOVARTIS: Cytotoxicity against human hepatocellular carcinoma cell line (Huh7); type: toxicity, cell-based, Huh-7; conditions: Huh7 cells (hepatocellular carcinoma cell line)

SMILES | EC50 (Plasmodium falciparum [1]; Plasmodium falciparum, 3D7) [nM] | EC50 (Plasmodium falciparum [2]; Plasmodium falciparum, W2) [nM] | CC50 [3] [nM] | EC50 (Plasmodium falciparum [1]) | EC50 (Plasmodium falciparum [2])
C=C[C@H]1C[N@]2CC[C@H]1C[C@H]2[C@H](O)c1ccnc2ccc(OC)cc12 | 518 | 793 | – | – | –
CN[C@@H]1CC2O[C@@](C)([C@@H]1OC)n1c3ccccc3c3c4c(c5c6ccccc6n2c5c31)C(=O)NC4 | – | – | 355 | – | –
CCc1nc(N)nc(N)c1-c1ccccc1 | 1550 | > 1250 | – | – | –
CN(C)c1ccc(/C=C2/SC(=Nc3ccccc3Cl)NC2=O)cc1 | > 1250 | – | – | 713 nM | > 512 nM and 1410 nM
Cc1ccc(Nc2nc(-c3ccccn3)cs2)cc1 | 407 | 368 | – | – | –
CCOC(=O)c1c[nH]c2c(ccc3ccccc32)c1=O | – | – | > 100000 | – | –
COc1cccc(NC(=O)C2C3C=CC4(O3)C2C(=O)N(CC2COc3ccccc3O2)C4C(=O)NC2CCCCC2)c1 (stereo not drawn) | > 1250 | > 53.7 | – | – | –
CCOC(=O)CC(C)(O)P(=O)(OC)OC (stereo not drawn) | > 1010 | > 1250 | – | – | –
CCCCNc1nc(NC(C)(C)C)nc(NC(C)(C)C)n1 | 2160 | 804 | – | – | –
CC(C)CN1C(=O)c2ccccc2C(C(=O)Nc2cccc(Cl)c2)C1c1cccs1 (stereo not drawn) | – | – | 93600 | – | –
CNc1nc(NN=Cc2cc([N+](=O)[O-])ccc2O)nc(Nc2cccc(C(F)(F)F)c2)n1 | 1860 | > 1660 | – | – | –
CN(C=Cc1sc2ccc3ccccc3c2[n+]1C)c1ccccc1 | – | – | – | 553 nM | 909 nM
CC1=CC(=O)OC[C@]23CCC(C)=C[C@H]2O[C@@H]2C[C@@H](OC(=O)C=CC=CC(=O)OCC1)[C@@]3(C)[C@]21CO1 | – | – | 206 | 3.91 nM | 9.18 nM
O=[N+]([O-])c1ccc(C2OC3C(c4ccc(Cl)cc4)=Nc4ccccc4N3C2c2ccc([N+](=O)[O-])cc2)cc1 (stereo not drawn) | > 1250 | 709 | – | – | –
O=C(CCCn1c2ccccc2c(=O)c2ccccc21)NCc1ccc(F)cc1 | 1110 | 1100 | – | – | –
COc1ccc(C2C(C(=O)c3ccc(C)cc3)=C(O)C(=O)N2CCN2CCOCC2)c(OC)c1 (stereo not drawn) | > 50 | > 1250 | – | – | –
Cc1c(Br)c([N+](=O)[O-])nn1CC(=O)NC(C)c1ccccc1 (stereo not drawn) | > 1250 | > 948 | – | – | –
CCC(C)NC(=O)c1nn(-c2ccc(Cl)cc2)c(=O)c2ccccc12 (stereo not drawn) | 285 | 696 | – | – | –
Cc1cc2cc3c(cc2c(C)n1)c1ccccc1n3C | 1260 | 1100 | – | – | –
CN(C)c1ccc(/C=C2\SC(=N)N(c3nccs3)C2=O)cc1 | 223 | 307 | – | – | –
CC(=O)N1CCc2cc(Br)cc(S(=O)(=O)N(CC(C)C)CC(C)C)c21 | 1220 | 270 | – | – | –

SMILES | EC50 (Plasmodium falciparum [1]; Plasmodium falciparum, 3D7) [nM] | EC50 (Plasmodium falciparum [2]; Plasmodium falciparum, W2) [nM] | CC50 [3] [nM] | EC50 (Plasmodium falciparum [1]) | EC50 (Plasmodium falciparum [2])
CCN1C=Cc2ccccc2/C1=C\c1ccc2ccccc2[n+]1CC | 670 | 294 | – | – | –
CCCCN(CCCC)c1nc(=O)cc(-c2ccc(Cl)cc2)o1 | 810 | 636 | – | – | –
CCCCOc1ccc(/C=C(/C#N)c2nc(-c3ccc(-c4ccccc4)cc3)cs2)cc1 | > 1250 | > 774 | – | – | –
Oc1ccccc1CNC(Cc1ccccc1)C(O)(c1ccccc1)c1ccccc1 (stereo not drawn) | 203 | 27.6 | – | – | –
CC(C)CN1C(=O)c2ccccc2C(C(=O)Nc2ccccc2F)C1c1cccs1 (stereo not drawn) | – | – | > 100000 | – | –
O=C(Cn1ccc(=NCc2ccccc2)cc1)c1cccc(Br)c1 | > 1390 | > 110 | – | – | –
CCCOC(=O)c1c(NC(=O)c2c(I)cnn2C)sc2c1CCCCC2 | 1240 | > 1250 | – | – | –
CC(C)CC[n+]1ccccc1C=Cc1ccc(N(C)C)cc1 | – | – | – | 747 nM | 548 nM
O=C(NC(=S)Nc1ccc(-c2nc3ccccc3s2)cc1)c1ccc(S(=O)(=O)N2CCCC2)cc1 | 2050 | > 1590 | – | – | –
O=C1/C(=C/c2ccccc2)SC(=Nc2ccccc2)N1C1CCCCC1 | 1200 | > 1250 | – | – | –
CCC(=O)Nc1ccc(C(=O)NN=Cc2cc([N+](=O)[O-])ccc2O)cc1 | > 1250 | 1540 | – | – | –
CN(/C=C/C1=[N+](C)c2ccc(Cl)cc2C1(C)C)c1ccccc1 | – | – | > 92800 | 1360 nM and 455 nM | 900 nM and 2040 nM
CC12C(=O)N(c3cccc(C(=O)O)c3)C(=O)C1C1c3ccccc3C2c2ccccc21 (stereo not drawn) | > 652 | > 1250 | – | – | –
COc1ccc(/C=C2\SC(=S)N(CC(=O)NNC(=O)c3ccncc3)C2=O)cc1 | > 1520 | 2280 | – | – | –
CCN1/C(=C/c2sc3ccc(-c4ccccc4)cc3[n+]2CCO)C=Cc2cc(OC)ccc21 | 487 | 945 | – | – | –
CC[n+]1ccc(C=Cc2ccc(N(C)C)cc2)cc1 [listing 1 of 2 here] | 681 | – | – | – | 724 nM
N#Cc1c2c(c(N3CCN(C(c4ccccc4)c4ccccc4)CC3)n3c1nc1ccccc13)CCC2 | > 1250 | 2270 | – | – | –
O=C(/C=C/c1ccccc1)Nc1ccc(C(=O)OC[C@@H]2CCCN3CCCC[C@H]23)cc1 | 1440 | > 1250 | – | – | –
Cc1ccc(N=C(Nc2ccc(C)cc2)Nc2ccccc2O)cc1 | 1530 | 231 | – | – | –
COc1ccc(-c2csc(NC(=O)COc3ccccc3Cl)n2)cc1Br | 1640 | 286 | – | – | –
COc1ccc(-c2cc(C(F)(F)F)n3ncc(C(=O)NCc4ccccc4)c3n2)cc1 | > 1250 | 1540 | – | – | –

SMILES | EC50 (Plasmodium falciparum [1]; Plasmodium falciparum, 3D7) [nM] | EC50 (Plasmodium falciparum [2]; Plasmodium falciparum, W2) [nM] | CC50 [3] [nM] | EC50 (Plasmodium falciparum [1]) | EC50 (Plasmodium falciparum [2])
CC[n+]1cc(C)ccc1C=Cc1ccc(N(C)C)cc1 | – | 386 | – | 521 nM | –
CC(C)CN1C(=O)c2ccccc2C(C(=O)Nc2cccc(C(F)(F)F)c2)C1c1cccs1 (stereo not drawn) | – | – | > 100000 | – | –
C=CC12CCN(CC1)C(C(O)c1ccnc3ccc(OC)cc13)C2 (stereo not drawn) | – | 29.3 | 77700 | – | –
CC[n+]1ccc(C=Cc2ccc(N(C)C)cc2)cc1 [listing 2 of 2 here] | – | – | > 84900 | 409 nM | > 4460 nM
CCOC(=O)C1=C(C)N=c2sc(=Cc3cc(Cl)ccc3O)c(=O)n2C1c1ccc(OC)c(OC)c1 (stereo not drawn) | – | – | > 100000 | – | 1440 nM and 264 nM
Cc1cc(Nc2ccc(C)c(F)c2)n2nc(C)nc2n1 | 1040 | – | > 100000 | – | –
COC(=O)c1ccc(C2C3=C(O)CC(c4ccco4)CC3=Nc3ccccc3N2C(=O)c2ccccc2)cc1 (stereo not drawn) | 387 | – | > 100000 | 579 nM | –
CCOC(=O)c1c(-c2ccc3c(c2)OCO3)[nH]c2cc(OC)ccc2c1=O | 127 | 180 | – | – | –
CCCCOc1cccc(NC(=O)CSC2=C(C#N)C(c3ccccc3)C(C(=O)Nc3ccccc3)=C(C)N2)c1 (stereo not drawn) | 507 | 479 | – | – | –
C=CC1CN2CCC1CC2[C@@H](OC(=O)c1cc([N+](=O)[O-])cc([N+](=O)[O-])c1)c1ccnc2ccc(OC)cc12 (stereo partly drawn) | 1300 | 1610 | – | – | –
O=C(Nc1cccc(-c2csc(-c3ccccc3)n2)c1)c1cccs1 | 1240 | 672 | – | – | –
Cc1ccnc(Nc2nc(-c3ccccn3)cs2)c1 | 113 | 46.3 | – | – | –
CC(C)CN1C(=O)c2ccccc2C(C(=O)Nc2ccccn2)C1c1cccs1 (stereo not drawn) | – | – | > 100000 | – | –
CN1/C(=C/C=C/c2oc3ccccc3[n+]2C)Oc2ccccc21 | 161 | – | – | 182 nM | –
Cc1ccc(C=Cc2ccc(N(C)C)cc2)[n+](C)c1 | – | – | – | 1160 nM | 914 nM
CN(C)c1ccc(C=C2SC(=Nc3ccccc3)NC2=O)cc1 | 27.1 | – | > 74400 | – | –
COc1cc2c(cc1OC)C1=NNC(=O)C1=NC(C)(C)C2 | > 1580 | 793 | – | – | –
CCOC(=O)C1=C(C)NC(=Cc2cc(C)n(-c3ccccc3C(F)(F)F)c2C)C1=O | 13.8 | 11.7 | – | – | –
CN1/C(=C\C=C\C2=[N+](C)c3ccc4ccccc4c3C2(C)C)C(C)(C)c2ccccc21 | 1640 | 1020 | – | – | –
O=C1C(N2CCCCC2)=C(N2CCOCC2)C(=O)c2ccccc21 | 1240 | > 1460 | – | – | –
CCN1/C(=C\c2sc3ccc(O)cc3[n+]2CC)C=Cc2ccccc21 | 582 | 701 | – | – | –

SMILES | EC50 (Plasmodium falciparum [1]; Plasmodium falciparum, 3D7) [nM] | EC50 (Plasmodium falciparum [2]; Plasmodium falciparum, W2) [nM] | CC50 [3] [nM] | EC50 (Plasmodium falciparum [1]) | EC50 (Plasmodium falciparum [2])
Oc1ccc(C(CCNCCc2c[nH]c3ccccc23)c2ccccc2)cc1 (stereo not drawn) | > 997 | 474 | – | – | –
CCOC(=O)C1=C(C)N/C(=C/c2cc(C)n(-c3ccccc3C(F)(F)F)c2C)C1=O | 471 | 628 | – | – | –
CC(C)CN1C(=O)c2ccccc2C(C(=O)NC2CCCCC2)C1c1cccs1 (stereo not drawn) | – | – | > 100000 | – | –
COc1ccc2ccccc2c1C1NC(SCc2ccc(F)cc2)=NC(C)=C1C(C)=O (stereo not drawn) | > 1610 | 702 | – | – | –
O=C1CCC(=O)N1c1ccc(CSc2nc3ccccc3[nH]2)cc1 | > 281 | > 1250 | – | – | –
CCCOc1ccc(C(=O)C2=C(O)C(=O)N(CCN3CCOCC3)C2c2ccc(F)cc2)c(C)c1 (stereo not drawn) | > 1250 | > 896 | – | – | –
CN(C)c1ccc(/C=C2\N=C(c3ccccc3F)OC2=O)cc1 | > 1250 | > 1210 | – | – | –
Cc1ccc(NC(=O)c2cc3ccccc3oc2=O)nc1 | > 1080 | > 1250 | – | – | –
Cc1cc(/C=C2\SC(=Nc3ccccc3)N(C3CCCCC3)C2=O)c(C)n1-c1ccc(F)cc1 | – | 383 | > 100000 | – | 680 nM
Cc1cccc(NC(c2cccc(F)c2)c2ccc3cccnc3c2O)n1 (stereo not drawn) | 1710 | 880 | – | – | –
COc1ccc(-c2nc(-c3ccc(-c4[nH]c(-c5ccc(OC)cc5)nc4-c4ccccc4)cc3)c(-c3ccccc3)[nH]2)cc1 | 1290 | > 1250 | – | – | –
COc1cnc(-c2ccccn2)nc1N1CCCC1 | 489 | 648 | – | – | –
COc1cc(C=NNc2nc3ccccc3[nH]2)cc(Br)c1O | 1420 | > 1250 | – | – | –
CC1=NN(c2ccccc2)C(=O)C1=NNc1c(Br)cc(Br)cc1Br | > 1250 | > 1050 | – | – | –
CCOC(=O)c1c(-c2ccc3c(c2)OCO3)[nH]c2cccc(OC)c2c1=O | – | – | > 10000 | – | –
N#CCSc1nc2c(sc(=S)n2-c2ccccc2)c(=O)n1Cc1ccco1 | > 1350 | 715 | – | – | –
COc1ccc(OC)c(C=NNC(=O)Cc2cc(O)n[nH]2)c1 | > 1250 | 1940 | – | – | –
CCN(CC)c1ccc(/C=C/c2ccc3ccc(OC)cc3[n+]2CC)cc1 | – | – | – | 38.4 nM and 248 nM | –
Cc1ccc(NC(=O)C2C3C=CC4(O3)C2C(=O)N(CCCN2CCOCC2)C4C(=O)NC2CCCC(C)C2C)cc1Cl (stereo not drawn) | > 1630 | > 117 | – | – | –
CC1(C)Cc2nc3ccccc3c(NCc3ccc(Cl)cc3)c2C(O)C1 (stereo not drawn) | > 1250 | 2110 | – | – | –
